Test [1] concerns the target Hepatocyte growth factor receptor (Homo sapiens, UniProt P08581).
The target of test [2] is Cyclin-dependent kinase 8 (Homo sapiens, UniProt P49336).
Test [3] deals with Tyrosine-protein kinase Lck (Homo sapiens, UniProt P06239).
In test [4] the target is Aurora kinase B (Homo sapiens, UniProt Q96GD4).
Test [5] deals with T1, Proto-oncogene tyrosine-protein kinase Src (Homo sapiens, UniProt P12931). The test can be described thus: biochemical.
In test [6] the target is Tyrosine-protein kinase ABL1 (Homo sapiens, UniProt P00519). In words: biochemical.
Tyrosine-protein kinase ABL1, sequence (P00519 whole entry): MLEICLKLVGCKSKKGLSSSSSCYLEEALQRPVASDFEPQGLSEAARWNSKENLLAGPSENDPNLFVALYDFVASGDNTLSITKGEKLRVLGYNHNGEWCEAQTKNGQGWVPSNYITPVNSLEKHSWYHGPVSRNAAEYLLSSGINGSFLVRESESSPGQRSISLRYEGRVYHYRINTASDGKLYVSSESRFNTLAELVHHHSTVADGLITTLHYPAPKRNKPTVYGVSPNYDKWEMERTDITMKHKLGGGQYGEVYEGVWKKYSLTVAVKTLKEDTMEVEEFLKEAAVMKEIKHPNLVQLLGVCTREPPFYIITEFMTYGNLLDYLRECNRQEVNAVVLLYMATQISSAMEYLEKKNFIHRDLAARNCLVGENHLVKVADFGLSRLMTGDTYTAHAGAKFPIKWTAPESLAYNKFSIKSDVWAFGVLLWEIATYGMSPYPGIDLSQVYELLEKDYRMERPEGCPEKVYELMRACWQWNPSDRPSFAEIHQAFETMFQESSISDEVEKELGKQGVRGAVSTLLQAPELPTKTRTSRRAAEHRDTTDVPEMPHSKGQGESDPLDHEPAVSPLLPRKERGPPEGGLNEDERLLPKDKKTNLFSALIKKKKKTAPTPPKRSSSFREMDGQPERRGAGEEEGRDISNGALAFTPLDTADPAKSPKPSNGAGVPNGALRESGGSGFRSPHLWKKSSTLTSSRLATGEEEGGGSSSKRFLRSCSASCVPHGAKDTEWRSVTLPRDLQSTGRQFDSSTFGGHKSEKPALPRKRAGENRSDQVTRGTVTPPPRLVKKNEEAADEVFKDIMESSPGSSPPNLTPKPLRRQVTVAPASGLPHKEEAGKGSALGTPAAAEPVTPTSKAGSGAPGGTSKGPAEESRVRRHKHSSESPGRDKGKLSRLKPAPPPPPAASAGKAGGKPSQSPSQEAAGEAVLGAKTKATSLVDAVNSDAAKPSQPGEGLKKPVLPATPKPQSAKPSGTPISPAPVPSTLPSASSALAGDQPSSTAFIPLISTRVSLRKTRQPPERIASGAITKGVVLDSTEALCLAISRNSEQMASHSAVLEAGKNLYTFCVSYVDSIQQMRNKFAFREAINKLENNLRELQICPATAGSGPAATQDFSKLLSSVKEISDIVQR
The target in test [7] is Tyrosine-protein kinase Fer (Homo sapiens, UniProt P16591). In words: biochemical.
Tyrosine-protein kinase Fer, sequence (P16591 whole entry): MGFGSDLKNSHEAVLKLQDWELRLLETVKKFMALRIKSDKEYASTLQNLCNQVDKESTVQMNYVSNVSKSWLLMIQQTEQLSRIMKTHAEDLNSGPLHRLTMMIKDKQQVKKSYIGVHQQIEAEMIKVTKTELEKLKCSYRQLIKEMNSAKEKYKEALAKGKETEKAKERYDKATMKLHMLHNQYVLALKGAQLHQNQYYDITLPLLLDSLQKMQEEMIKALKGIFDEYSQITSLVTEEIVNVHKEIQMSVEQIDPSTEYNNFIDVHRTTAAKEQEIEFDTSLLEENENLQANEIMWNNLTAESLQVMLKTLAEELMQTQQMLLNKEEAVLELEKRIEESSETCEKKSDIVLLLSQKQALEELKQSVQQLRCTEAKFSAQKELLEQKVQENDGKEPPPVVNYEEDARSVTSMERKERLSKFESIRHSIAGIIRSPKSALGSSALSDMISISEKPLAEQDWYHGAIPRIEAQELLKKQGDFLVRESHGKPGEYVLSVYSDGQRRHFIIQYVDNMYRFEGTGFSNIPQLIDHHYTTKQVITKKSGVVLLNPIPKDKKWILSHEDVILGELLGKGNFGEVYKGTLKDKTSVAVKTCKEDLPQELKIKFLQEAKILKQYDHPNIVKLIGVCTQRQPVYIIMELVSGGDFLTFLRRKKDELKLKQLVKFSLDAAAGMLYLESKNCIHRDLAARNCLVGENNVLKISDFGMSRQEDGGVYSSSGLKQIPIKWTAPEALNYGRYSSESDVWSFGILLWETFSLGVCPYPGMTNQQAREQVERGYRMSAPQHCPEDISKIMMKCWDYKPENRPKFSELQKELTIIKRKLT
The target in test [8] is T2, Tyrosine-protein kinase Mer (Homo sapiens, UniProt Q12866).
T2 sequence (Q12866 whole entry): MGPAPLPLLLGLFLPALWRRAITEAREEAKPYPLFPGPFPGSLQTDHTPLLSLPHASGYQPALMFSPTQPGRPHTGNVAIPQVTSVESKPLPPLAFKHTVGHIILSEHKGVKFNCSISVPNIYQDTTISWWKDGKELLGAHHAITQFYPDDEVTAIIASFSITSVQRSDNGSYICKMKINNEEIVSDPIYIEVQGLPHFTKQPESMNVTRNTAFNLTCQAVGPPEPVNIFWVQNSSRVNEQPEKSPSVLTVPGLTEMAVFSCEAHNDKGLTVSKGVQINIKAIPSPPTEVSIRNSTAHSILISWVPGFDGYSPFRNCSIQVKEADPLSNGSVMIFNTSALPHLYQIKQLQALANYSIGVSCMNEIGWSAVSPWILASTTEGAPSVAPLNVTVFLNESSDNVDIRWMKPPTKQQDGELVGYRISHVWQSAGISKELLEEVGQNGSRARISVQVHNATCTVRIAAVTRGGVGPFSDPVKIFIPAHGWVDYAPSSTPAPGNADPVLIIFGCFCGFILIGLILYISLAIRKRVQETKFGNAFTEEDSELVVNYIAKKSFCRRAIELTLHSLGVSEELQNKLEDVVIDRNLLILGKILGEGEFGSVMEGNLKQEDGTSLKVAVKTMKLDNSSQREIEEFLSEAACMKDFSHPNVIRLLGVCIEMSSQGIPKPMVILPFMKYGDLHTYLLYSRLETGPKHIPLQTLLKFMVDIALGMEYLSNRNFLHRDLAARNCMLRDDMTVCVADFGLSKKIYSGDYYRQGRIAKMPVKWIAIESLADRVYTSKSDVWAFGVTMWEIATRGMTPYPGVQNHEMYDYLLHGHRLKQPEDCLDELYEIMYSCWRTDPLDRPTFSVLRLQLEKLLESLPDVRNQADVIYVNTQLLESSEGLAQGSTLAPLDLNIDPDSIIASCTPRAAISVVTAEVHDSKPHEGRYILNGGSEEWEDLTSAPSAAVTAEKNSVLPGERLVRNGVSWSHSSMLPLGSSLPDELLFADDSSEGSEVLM

In test [9] the target is T1, Proto-oncogene tyrosine-protein kinase Src.
Test [10] concerns the target T3, Dual specificity mitogen-activated protein kinase kinase 5 (Homo sapiens, UniProt Q13163).
T3 sequence (Q13163 whole entry): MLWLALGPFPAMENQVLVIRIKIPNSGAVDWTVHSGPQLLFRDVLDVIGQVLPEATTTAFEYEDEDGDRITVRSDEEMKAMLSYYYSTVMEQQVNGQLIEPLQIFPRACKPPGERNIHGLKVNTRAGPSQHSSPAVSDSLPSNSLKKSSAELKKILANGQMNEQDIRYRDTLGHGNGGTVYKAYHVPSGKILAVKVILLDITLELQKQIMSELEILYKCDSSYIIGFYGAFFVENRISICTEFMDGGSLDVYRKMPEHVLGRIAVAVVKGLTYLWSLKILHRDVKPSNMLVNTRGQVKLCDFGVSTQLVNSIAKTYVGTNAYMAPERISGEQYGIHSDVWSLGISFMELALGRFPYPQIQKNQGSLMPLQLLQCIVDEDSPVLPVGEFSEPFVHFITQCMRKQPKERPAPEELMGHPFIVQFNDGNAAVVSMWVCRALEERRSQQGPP
The test can be described thus: biochemical.

Test [11] has as its system 4T1. In words: Anticoagulant activity against mouse 4T1 cells xenografted in Balb/c mouse assessed as prothrombin time at 0.5 mg/L, po administered for 16 days by coagulometer analysis (reference value: 15.10 +/- 1.46 sec). Format: functional. The note with it: time 16 day.
In test [12] the test system is B16-F10. In words: Antitumor activity against mouse B16-F10 cells xenografted in Cbl-b+/+ mouse assessed as reduction in melanoma metastases in lungs at 0.5 mg/L, po administered for 16 days by haematoxylin and eosin staining based microscope analysis. Format: functional, organism-based. The note with it: time 16.0 day.
The test system of test [13] is RMA-S. In words: Cytotoxicity against RMA-S cells overexpressing Rae1 in Cbl-b+/+ mouse by flow cytometry analysis. Format: functional, cell-based. (In flow cytometry, cells or beads pass a laser one at a time.)
The test system of test [14] is B16-F10. The test can be described thus: Antitumor activity against mouse B16-F10 cells xenografted in Cbl-b+/+ mouse assessed as coagulation at 0.5 mg/L, po administered for 16 days by coagulometer analysis. The note with it: time 16.0 day. Format: functional, organism-based.
Test [15] concerns RMA-S. In words: Cytotoxicity against RMA-S cells in Cbl-b+/+ mouse by flow cytometry analysis. It counts as functional, cell-based.
Test [16] relates to B16-F10. In words: Antitumor activity against mouse B16-F10 cells xenografted in Cbl-b+/- mouse assessed as coagulation at 0.5 mg/L, po administered for 16 days by coagulometer analysis. It counts as functional, organism-based. The note with it: time 16.0 day.
Test [17] deals with B16-F10. In words: Antitumor activity against mouse B16-F10 cells xenografted in Cbl-b+/- mouse assessed as reduction in melanoma metastases in lungs at 0.5 mg/L, po administered for 16 days by haematoxylin and eosin staining based microscope analysis. Format: functional, organism-based. The note with it: time 16.0 day.
For test [18], the system named is B16-F10. In words: Antitumor activity against mouse B16-F10 cells xenografted in Cbl-b defective mouse assessed as reduction in melanoma metastases at 0.5 mg/L, po administered for 16 days by haematoxylin and eosin staining based microscope analysis. Format: functional, organism-based. The note with it: time 16.0 day.

Molecules are shown by their SMILES. Activity calls are given as the source filed them. No cut-off for these calls is given here.

T1 sequence (P12931 whole entry, looked up): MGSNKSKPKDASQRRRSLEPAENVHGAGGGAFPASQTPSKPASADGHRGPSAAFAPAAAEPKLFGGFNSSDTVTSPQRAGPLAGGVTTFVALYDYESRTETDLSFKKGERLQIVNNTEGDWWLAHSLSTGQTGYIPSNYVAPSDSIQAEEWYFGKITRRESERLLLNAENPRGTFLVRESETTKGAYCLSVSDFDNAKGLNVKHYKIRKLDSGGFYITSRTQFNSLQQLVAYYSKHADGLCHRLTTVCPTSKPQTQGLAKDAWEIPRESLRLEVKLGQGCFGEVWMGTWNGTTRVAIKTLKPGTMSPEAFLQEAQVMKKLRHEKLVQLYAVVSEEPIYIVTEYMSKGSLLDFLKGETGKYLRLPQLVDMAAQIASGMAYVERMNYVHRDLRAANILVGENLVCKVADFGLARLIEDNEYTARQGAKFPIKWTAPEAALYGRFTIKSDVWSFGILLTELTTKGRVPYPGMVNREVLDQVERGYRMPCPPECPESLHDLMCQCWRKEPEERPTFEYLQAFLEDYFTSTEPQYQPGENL
Hepatocyte growth factor receptor, sequence (P08581 whole entry): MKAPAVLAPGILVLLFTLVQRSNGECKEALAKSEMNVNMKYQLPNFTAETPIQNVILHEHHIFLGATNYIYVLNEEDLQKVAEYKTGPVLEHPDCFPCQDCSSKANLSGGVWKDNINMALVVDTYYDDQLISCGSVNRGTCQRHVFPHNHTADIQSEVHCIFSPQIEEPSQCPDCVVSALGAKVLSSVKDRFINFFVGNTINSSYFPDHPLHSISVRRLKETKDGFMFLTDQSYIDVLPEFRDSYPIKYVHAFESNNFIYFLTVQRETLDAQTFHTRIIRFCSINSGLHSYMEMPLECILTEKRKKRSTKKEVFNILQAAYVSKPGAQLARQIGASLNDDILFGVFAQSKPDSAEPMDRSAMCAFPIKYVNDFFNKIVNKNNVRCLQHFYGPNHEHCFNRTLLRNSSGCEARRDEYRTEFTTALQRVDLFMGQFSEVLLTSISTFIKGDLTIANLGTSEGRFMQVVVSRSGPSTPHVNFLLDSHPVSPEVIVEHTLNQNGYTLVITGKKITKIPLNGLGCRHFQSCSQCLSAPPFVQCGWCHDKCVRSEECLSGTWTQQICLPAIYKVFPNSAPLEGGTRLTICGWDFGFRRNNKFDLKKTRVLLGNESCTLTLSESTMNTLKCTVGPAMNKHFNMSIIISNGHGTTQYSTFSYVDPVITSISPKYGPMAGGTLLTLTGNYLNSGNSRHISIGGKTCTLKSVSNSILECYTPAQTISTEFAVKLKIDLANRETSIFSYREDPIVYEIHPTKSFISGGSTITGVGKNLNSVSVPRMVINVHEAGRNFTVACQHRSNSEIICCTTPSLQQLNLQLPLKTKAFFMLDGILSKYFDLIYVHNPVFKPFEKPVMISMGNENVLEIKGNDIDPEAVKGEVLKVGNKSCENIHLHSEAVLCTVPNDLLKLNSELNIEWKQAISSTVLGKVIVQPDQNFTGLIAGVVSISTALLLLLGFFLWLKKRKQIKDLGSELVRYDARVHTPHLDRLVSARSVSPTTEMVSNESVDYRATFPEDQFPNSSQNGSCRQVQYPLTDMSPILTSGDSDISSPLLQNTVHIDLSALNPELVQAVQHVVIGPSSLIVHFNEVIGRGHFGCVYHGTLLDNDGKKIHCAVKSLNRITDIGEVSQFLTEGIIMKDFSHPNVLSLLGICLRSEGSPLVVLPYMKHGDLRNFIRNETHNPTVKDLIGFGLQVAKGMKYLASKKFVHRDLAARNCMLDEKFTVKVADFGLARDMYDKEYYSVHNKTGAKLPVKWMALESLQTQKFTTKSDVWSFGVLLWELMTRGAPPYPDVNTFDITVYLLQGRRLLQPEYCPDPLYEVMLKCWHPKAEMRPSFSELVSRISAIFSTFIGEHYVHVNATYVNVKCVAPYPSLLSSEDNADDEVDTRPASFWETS
Cyclin-dependent kinase 8, sequence (P49336 whole entry): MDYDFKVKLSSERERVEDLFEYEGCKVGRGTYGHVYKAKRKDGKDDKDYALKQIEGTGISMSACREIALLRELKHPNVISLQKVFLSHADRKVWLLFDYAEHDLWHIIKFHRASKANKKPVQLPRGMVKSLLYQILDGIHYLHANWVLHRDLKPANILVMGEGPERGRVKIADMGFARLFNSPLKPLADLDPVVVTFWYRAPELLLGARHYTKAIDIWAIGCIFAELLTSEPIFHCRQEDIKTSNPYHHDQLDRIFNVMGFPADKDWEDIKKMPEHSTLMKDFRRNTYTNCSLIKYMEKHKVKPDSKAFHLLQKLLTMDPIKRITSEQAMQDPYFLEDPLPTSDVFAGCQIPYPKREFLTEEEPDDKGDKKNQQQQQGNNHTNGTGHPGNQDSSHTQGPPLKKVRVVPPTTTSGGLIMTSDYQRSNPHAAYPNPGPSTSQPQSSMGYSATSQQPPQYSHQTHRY
Tyrosine-protein kinase Lck, sequence (P06239 whole entry): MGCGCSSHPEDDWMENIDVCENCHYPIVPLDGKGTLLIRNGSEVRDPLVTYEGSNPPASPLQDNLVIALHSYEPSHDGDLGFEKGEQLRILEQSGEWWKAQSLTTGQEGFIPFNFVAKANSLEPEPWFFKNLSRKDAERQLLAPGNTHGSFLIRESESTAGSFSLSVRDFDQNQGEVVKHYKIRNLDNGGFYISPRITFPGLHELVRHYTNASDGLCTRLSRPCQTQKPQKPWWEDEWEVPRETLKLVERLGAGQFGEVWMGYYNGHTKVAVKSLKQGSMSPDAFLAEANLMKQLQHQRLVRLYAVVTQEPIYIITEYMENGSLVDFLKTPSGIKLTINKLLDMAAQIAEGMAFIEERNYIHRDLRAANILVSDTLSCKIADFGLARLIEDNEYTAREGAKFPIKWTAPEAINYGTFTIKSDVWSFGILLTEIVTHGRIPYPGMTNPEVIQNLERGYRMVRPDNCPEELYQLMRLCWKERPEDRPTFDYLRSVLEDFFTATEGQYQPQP

Consider `CCOc1cn(-c2ccc(F)cc2C)nc1C(=O)Nc1ccc(Oc2ccnc3cc(OC)c(OC)cc23)c(F)c1`, for which the IC50 (in general, the midpoint of a concentration-inhibition curve) in test [1] was 35 nM; in [2], 3170 nM; in test [3], 51 nM; in [4], 36 nM; in test [8], below 5 nM; in test [9], 338 nM. The Kd – broadly, a measure of binding affinity in units of concentration – in test [5] stood at 217 nM; in test [6], 154 nM; in test [7], 107 nM; in test [10], 124 nM.

For `CC(=O)CC(c1ccccc1)c1c(O)c2ccccc2oc1=O` (stereo not drawn) [WARFARIN], in test [11], the PT was found to be 19.13 s. In addition, the result in [12], in test [13], in test [14], in test [15], in test [16] and in test [17] was Active. In addition, in test [18], the outcome was inactive.

For the origin of these results see ChEMBL document CHEMBL5649165, “The E3 ligase Cbl-b and TAM receptors regulate cancer metastasis via natural killer cells” (Nature, 2014).
